{"source": "BindingDB's records for doi:10.1021/jm1003705", "about": "(The University of Queensland, 2010)", "biological_target": "T1, C3a anaphylatoxin chemotactic receptor (Homo sapiens, UniProt Q16581)", "T1 sequence (Q16581 whole entry)": "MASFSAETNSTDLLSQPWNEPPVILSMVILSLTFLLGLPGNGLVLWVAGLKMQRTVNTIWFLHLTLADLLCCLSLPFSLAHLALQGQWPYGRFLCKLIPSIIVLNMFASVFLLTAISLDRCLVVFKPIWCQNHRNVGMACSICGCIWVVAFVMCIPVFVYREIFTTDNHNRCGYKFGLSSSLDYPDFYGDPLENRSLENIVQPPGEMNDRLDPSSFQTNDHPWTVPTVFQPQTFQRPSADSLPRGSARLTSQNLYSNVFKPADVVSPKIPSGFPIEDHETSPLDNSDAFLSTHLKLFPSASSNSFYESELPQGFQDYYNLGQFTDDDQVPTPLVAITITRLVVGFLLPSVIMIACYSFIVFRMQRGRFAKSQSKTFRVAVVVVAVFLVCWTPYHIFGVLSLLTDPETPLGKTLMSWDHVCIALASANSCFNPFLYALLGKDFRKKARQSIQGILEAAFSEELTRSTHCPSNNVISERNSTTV", "assay": "Displacement of [125I-C3a] from C3a receptor in human PBMC by scintillation counting", "note": "pIC50: −log10 of the molar value."}
{"smiles": "NC(N)=NCCC[C@H](NC(=O)COCC(c1ccccc1)c1ccccc1)C(=O)O", "note": "[(S)-2-(2-(2,2-diphenylethoxy)acetamido)-5-guanidinopentanoic acid]", "values": [{"measurement": "pIC50", "value": 6.90}]}
